Data reported in patent US20070004805A1, “Process for preparation of liquid dosage form containing sodium 4-phenylbutyrate” (Navinta LLC, priority 2005, published 2007).

How the values were obtained:
[1] = cold storage of the highly concentrated aqueous solution (freezing / precipitation); assay type: physicochemical
Procedure: As described in more detail below, this invention describes a process of preparing a highly concentrated solution of sodium 4-phenylbutyrate, having a concentration 500 mg/mL in water by dissolving 5 g of sodium 4-phenylbutyrate in about 3.5 mL water to yield a solution volume of about 10 mL. The temperature can be room temperature (25° C.) or an elevated temperature, preferably in the range of up to about 80° C. We found it is more difficult to make this solution at room temperature, but the solution can be made at a higher temperature and then cooled to room temperature without precipitating resulting. […] Therefore, due to likely micelle formation of sodium 4-phenylbutyrate (which we term the self-associated polymeric form), the high concentration of about 500 mg/mL can be achieved in solution. […] This novel invention thus provides a dosage form better able to help the patients presently administered with a high volume dosage of sodium 4-phenylbutyrate. This invention is not intended to be limited by this discussion of micellar phases, or the presence or absence of other high concentration phases (such as sponge or L3, worm-like micelles, sheets and other laminar phases) that may be formed depending on the particular processing conditions and/or materials used. In the follow description the term “solution” is used without regard to whether a micellar phase is present.
About 160 g of sodium 4-phenylbutyrate was transferred to a 250 mL volumetric flask to which was then added about 90 mL of water and agitated with heating at a temperature 70° C. to dissolve. The mixture was cooled to 25° C. and 0.5 g of sodium benzoate was added and mixed well. This solution was compounded to 250 mL with water.

[2] = solubility / achievable concentration of sodium 4-phenylbutyrate in water; assay type: physicochemical
Procedure: In another embodiment, this invention provides a process of preparing a supersaturated solution of sodium 4-phenylbutyrate in water by adding sufficient water to a known quantity of sodium 4-phenylbutyrate at an elevated temperature of about 30° to about 80° C. to produce a concentration of about 600 mg/mL.
As described in more detail below, this invention describes a process of preparing a highly concentrated solution of sodium 4-phenylbutyrate, having a concentration 500 mg/mL in water by dissolving 5 g of sodium 4-phenylbutyrate in about 3.5 mL water to yield a solution volume of about 10 mL. The temperature can be room temperature (25° C.) or an elevated temperature, preferably in the range of up to about 80° C. We found it is more difficult to make this solution at room temperature, but the solution can be made at a higher temperature and then cooled to room temperature without precipitating resulting. […] Therefore, due to likely micelle formation of sodium 4-phenylbutyrate (which we term the self-associated polymeric form), the high concentration of about 500 mg/mL can be achieved in solution. […] This novel invention thus provides a dosage form better able to help the patients presently administered with a high volume dosage of sodium 4-phenylbutyrate. […]

O=C([O-])CCCc1ccccc1.[Na+] [sodium 4-phenylbutyrate]
freezing of the solution ([1]; 600 mg/mL solution at 0° C.): does not freeze | freezing or precipitation upon storage ([1]; about 500 mg/mL solution, 0° C. for two days): did not freeze or precipitate out | precipitation on further cooling ([1]; about 500 mg/mL solution, cooled to −4° C.): precipitation observed | high concentration achieved in solution ([2]; in water, made at room temperature (25° C.) or up to about 80° C., then cooled without precipitation): about 500 mg/mL | maximum drug concentration achieved in the formulation ([2]; supersaturated solution in aqueous medium): about 700 mg/mL
